In the NIST ThermoML archive (doi:10.1016/j.jct.2010.06.011):
± gives the expanded uncertainty stated by the source.

Test: xn = mol fraction of the nth substance listed
Details: Liquid, Vibrating tube method

COC(=O)OC [dimethyl carbonate] + CCCCCC
mass density [kg/m3]
Details | 100 kPa | 5000 kPa | 10000 kPa | 20000 kPa | 30000 kPa | 40000 kPa
293.15 K, x1 = 0.1 | 684.2 ± 0.3 | 689.7 ± 0.3 | 694.6 ± 0.4 | 703.9 ± 0.4 | 712.2 ± 0.5 | 719.8 ± 0.6
293.15 K, x1 = 0.2 | 712 ± 0.3 | 717.6 ± 0.4 | 722.6 ± 0.4 | 732 ± 0.4 | 740.4 ± 0.5 | 748.1 ± 0.6
293.15 K, x1 = 0.3 | 742.7 ± 0.3 | 748.3 ± 1.5 | 753.3 ± 0.3 | 762.8 ± 0.4 | 771.3 ± 0.5 | 779.2 ± 0.5
293.15 K, x1 = 0.4 | 776.5 ± 0.3 | 782.1 ± 1.6 | 787.2 ± 0.4 | 796.7 ± 0.4 | 805.3 ± 0.4 | 813.2 ± 0.5
293.15 K, x1 = 0.5 | 813.8 ± 0.4 | 819.4 ± 0.4 | 824.5 ± 0.4 | 834 ± 0.4 | 842.6 ± 0.4 | 850.6 ± 0.5
293.15 K, x1 = 0.6 | 855 ± 0.4 | 860.5 ± 0.4 | 865.5 ± 0.4 | 875 ± 0.4 | 883.6 ± 0.4 | 891.5 ± 0.4
293.15 K, x1 = 0.7 | 900.5 ± 0.4 | 905.9 ± 0.8 | 910.9 ± 0.3 | 920.2 ± 0.3 | 928.7 ± 0.3 | 936.6 ± 0.4
293.15 K, x1 = 0.8 | 951.6 ± 0.4 | 956.8 ± 0.7 | 961.6 ± 0.3 | 970.7 ± 0.3 | 978.9 ± 0.3 | 986.8 ± 0.3
293.15 K, x1 = 0.9 | 1008.5 ± 0.3 | 1013.4 ± 0.3 | 1018 ± 0.3 | 1026.7 ± 0.3 | 1034.6 ± 0.3 | 1042.3 ± 0.3
293.15 K, x1 = 0.95 | 1038.4 ± 0.3 | 1043.2 ± 0.3 | 1047.6 ± 0.3 | 1056.1 ± 0.3 | 1063.9 ± 0.3 | 1071.5 ± 0.3
293.15 K, x1 = 1 | 1069.8 ± 0.3 | 1074.4 ± 0.3 | 1078.6 ± 0.3 | 1086.9 ± 0.3 | 1094.5 ± 0.3 | 1101.9 ± 0.4
298.15 K, x1 = 0.1 | 679.5 ± 0.3 | 685.1 ± 0.3 | 690.3 ± 0.3 | 699.8 ± 0.4 | 708.4 ± 0.5 | 716 ± 0.6
298.15 K, x1 = 0.2 | 707 ± 0.3 | 712.8 ± 1.1 | 718 ± 0.4 | 727.7 ± 0.4 | 736.4 ± 0.5 | 744.2 ± 0.6
298.15 K, x1 = 0.3 | 737.5 ± 0.3 | 743.3 ± 1.6 | 748.6 ± 0.4 | 758.3 ± 0.4 | 767.2 ± 0.5 | 775.1 ± 0.5
298.15 K, x1 = 0.4 | 771.1 ± 0.3 | 776.9 ± 1.8 | 782.2 ± 0.4 | 792 ± 0.4 | 800.9 ± 0.4 | 808.9 ± 0.5
298.15 K, x1 = 0.5 | 808.2 ± 0.3 | 814 ± 0.4 | 819.3 ± 0.4 | 829.1 ± 0.4 | 838 ± 0.4 | 846.1 ± 0.5
298.15 K, x1 = 0.6 | 849.2 ± 0.3 | 854.9 ± 0.3 | 860.2 ± 0.3 | 869.9 ± 0.4 | 878.8 ± 0.4 | 886.9 ± 0.4
298.15 K, x1 = 0.7 | 894.5 ± 0.3 | 900.2 ± 1.1 | 905.3 ± 0.3 | 914.9 ± 0.3 | 923.7 ± 0.3 | 931.7 ± 0.3
298.15 K, x1 = 0.8 | 945.4 ± 0.3 | 950.8 ± 0.3 | 955.8 ± 0.3 | 965.1 ± 0.3 | 973.7 ± 0.3 | 981.6 ± 0.3
298.15 K, x1 = 0.9 | 1002.1 ± 0.3 | 1007.3 ± 0.3 | 1012 ± 0.3 | 1020.8 ± 0.3 | 1029.1 ± 0.3 | 1036.9 ± 0.3
298.15 K, x1 = 0.95 | 1032 ± 0.3 | 1036.9 ± 0.3 | 1041.5 ± 0.3 | 1050.2 ± 0.3 | 1058.2 ± 0.3 | 1065.9 ± 0.3
298.15 K, x1 = 1 | 1063.2 ± 0.3 | 1068 ± 0.3 | 1072.4 ± 0.3 | 1080.8 ± 0.3 | 1088.7 ± 0.3 | 1096.2 ± 0.4
303.15 K, x1 = 0.1 | 674.6 ± 0.3 | 680.3 ± 0.3 | 685.7 ± 0.4 | 695.6 ± 0.4 | 704.3 ± 0.5 | 712.2 ± 0.6
303.15 K, x1 = 0.2 | 701.9 ± 0.3 | 707.7 ± 0.3 | 713.3 ± 0.4 | 723.3 ± 0.4 | 732.2 ± 0.5 | 740.2 ± 0.6
303.15 K, x1 = 0.3 | 732.2 ± 0.3 | 738 ± 2.1 | 743.6 ± 0.4 | 753.7 ± 0.4 | 762.7 ± 0.5 | 770.9 ± 0.5
303.15 K, x1 = 0.4 | 765.6 ± 0.3 | 771.5 ± 0.9 | 777.1 ± 0.3 | 787.2 ± 0.4 | 796.3 ± 0.4 | 804.6 ± 0.5
303.15 K, x1 = 0.5 | 802.5 ± 0.3 | 808.3 ± 0.4 | 813.9 ± 0.4 | 824.1 ± 0.4 | 833.3 ± 0.4 | 841.6 ± 0.5
303.15 K, x1 = 0.6 | 843.3 ± 0.3 | 849.5 ± 0.3 | 855 ± 0.3 | 865 ± 0.4 | 874.1 ± 0.4 | 882.3 ± 0.4
303.15 K, x1 = 0.7 | 888.5 ± 0.3 | 894.5 ± 1.9 | 899.9 ± 0.3 | 909.8 ± 0.3 | 918.7 ± 0.3 | 926.9 ± 0.3
303.15 K, x1 = 0.8 | 939.1 ± 0.3 | 944.8 ± 0.3 | 950 ± 0.3 | 959.7 ± 0.3 | 968.5 ± 0.3 | 976.5 ± 0.3
303.15 K, x1 = 0.9 | 995.7 ± 0.3 | 1000.9 ± 0.3 | 1005.9 ± 0.3 | 1015.1 ± 0.3 | 1023.6 ± 0.3 | 1031.4 ± 0.3
303.15 K, x1 = 0.95 | 1025.4 ± 0.3 | 1030.4 ± 0.3 | 1035.2 ± 0.3 | 1044.2 ± 0.3 | 1052.6 ± 0.3 | 1060.2 ± 0.3
303.15 K, x1 = 1 | 1056.5 ± 0.3 | 1061.3 ± 0.3 | 1066 ± 0.3 | 1074.7 ± 0.3 | 1082.9 ± 0.3 | 1090.4 ± 0.4
308.15 K, x1 = 0.1 | 669.8 ± 0.3 | 675.7 ± 0.3 | 681.4 ± 0.4 | 691.5 ± 0.4 | 700.6 ± 0.5 | 708.6 ± 0.6
308.15 K, x1 = 0.2 | 696.9 ± 0.3 | 703 ± 1.3 | 708.7 ± 0.4 | 719 ± 0.4 | 728.3 ± 0.5 | 736.4 ± 0.6
308.15 K, x1 = 0.3 | 727 ± 0.3 | 733.1 ± 0.8 | 738.8 ± 0.4 | 749.3 ± 0.4 | 758.7 ± 0.5 | 766.9 ± 0.5
308.15 K, x1 = 0.4 | 760.2 ± 0.3 | 766.3 ± 0.5 | 772 ± 0.3 | 782.6 ± 0.4 | 792.1 ± 0.4 | 800.4 ± 0.5
308.15 K, x1 = 0.5 | 796.9 ± 0.3 | 802.9 ± 0.4 | 808.7 ± 0.4 | 819.2 ± 0.4 | 828.8 ± 0.4 | 837.2 ± 0.5
308.15 K, x1 = 0.6 | 837.4 ± 0.3 | 843.8 ± 0.3 | 849.5 ± 0.3 | 859.9 ± 0.4 | 869.4 ± 0.4 | 877.7 ± 0.4
308.15 K, x1 = 0.7 | 882.5 ± 0.3 | 888.6 ± 1.5 | 894.2 ± 0.3 | 904.4 ± 0.3 | 913.8 ± 0.3 | 922.1 ± 0.3
308.15 K, x1 = 0.8 | 932.8 ± 0.3 | 938.7 ± 0.4 | 944.1 ± 0.3 | 954.1 ± 0.3 | 963.2 ± 0.3 | 971.5 ± 0.3
308.15 K, x1 = 0.9 | 989.2 ± 0.3 | 994.6 ± 0.3 | 999.7 ± 0.3 | 1009.3 ± 0.3 | 1018.1 ± 0.3 | 1026.1 ± 0.3
308.15 K, x1 = 0.95 | 1018.8 ± 0.3 | 1023.8 ± 0.3 | 1028.8 ± 0.3 | 1038.1 ± 0.3 | 1046.8 ± 0.3 | 1054.7 ± 0.3
308.15 K, x1 = 1 | 1049.8 ± 0.3 | 1054.6 ± 0.3 | 1059.4 ± 0.3 | 1068.5 ± 0.3 | 1077 ± 0.3 | 1084.8 ± 0.3
313.15 K, x1 = 0.1 | 664.8 ± 0.3 | 671.1 ± 0.3 | 677 ± 0.3 | 687.5 ± 0.4 | 696.7 ± 0.5 | 705 ± 0.6
313.15 K, x1 = 0.2 | 691.7 ± 0.3 | 698 ± 0.9 | 704.1 ± 0.3 | 714.7 ± 0.4 | 724.2 ± 0.5 | 732.6 ± 0.6
313.15 K, x1 = 0.3 | 721.5 ± 0.3 | 727.8 ± 2.5 | 733.9 ± 0.4 | 744.7 ± 0.4 | 754.3 ± 0.5 | 762.9 ± 0.5
313.15 K, x1 = 0.4 | 754.5 ± 0.3 | 760.9 ± 0.7 | 767 ± 0.3 | 777.9 ± 0.4 | 787.5 ± 0.4 | 796.3 ± 0.5
313.15 K, x1 = 0.5 | 791 ± 0.3 | 797.4 ± 0.3 | 803.4 ± 0.4 | 814.3 ± 0.4 | 824 ± 0.4 | 832.8 ± 0.5
313.15 K, x1 = 0.6 | 831.4 ± 0.3 | 837.6 ± 0.3 | 843.7 ± 0.3 | 854.5 ± 0.4 | 864.1 ± 0.4 | 872.9 ± 0.4
313.15 K, x1 = 0.7 | 876.3 ± 0.3 | 882.4 ± 1 | 888.3 ± 0.3 | 898.9 ± 0.3 | 908.5 ± 0.3 | 917.2 ± 0.3
313.15 K, x1 = 0.8 | 926.4 ± 0.3 | 932.2 ± 0.3 | 937.9 ± 0.3 | 948.2 ± 0.3 | 957.6 ± 0.3 | 966.1 ± 0.2
313.15 K, x1 = 0.9 | 982.5 ± 0.3 | 988 ± 0.3 | 993.4 ± 0.3 | 1003.2 ± 0.3 | 1012.2 ± 0.3 | 1020.6 ± 0.3
313.15 K, x1 = 0.95 | 1012.1 ± 0.3 | 1017.4 ± 0.3 | 1022.5 ± 0.3 | 1032.1 ± 0.3 | 1041 ± 0.3 | 1049.1 ± 0.3
313.15 K, x1 = 1 | 1043 ± 0.3 | 1048.1 ± 0.3 | 1053 ± 0.3 | 1062.3 ± 0.3 | 1071 ± 0.3 | 1079 ± 0.3
